Test system: participants with SSc-RP
Experiment: Average duration of weekly RP attacks (minutes)
Assay type: in vivo, human
Source text: The absolute change in average duration of weekly RP attacks from baseline to the end of each dosing period was and will be a secondary outcome variable. The sponsor-developed participant-informed diary was and will be used to record data. Average duration of weekly RP attacks is defined as the total duration of RP attacks divided by total number of RP attacks within the last 7 days of each dosing period. Total duration of RP attacks during the last 7 days of screening period divided by the total number of RP attacks will be used as baseline for the analysis of all periods. The variable will be calculated similar to frequency data as before.

[1] = Cilnidipine 10 mg, n=1, Excluding Outliers, ITT Part A
[2] = Cilnidipine 10 mg, n=1, ITT Part A
[3] = Cilnidipine 10 mg, Baseline RCS subgroup 1 (unnamed), ITT Part A
[4] = Cilnidipine 10 mg, Excluding Outliers, Baseline RCS subgroup 1 (unnamed), ITT Part A
[5] = Cilnidipine 10 mg, Excluding Outliers, ITT Population - Part A
[6] = Cilnidipine 10 mg, Excluding Outliers, by Baseline RCS, subgroup 1, ITT Population - Part A
[7] = Cilnidipine 10 mg, by Baseline RCS, subgroup 1, ITT Population - Part A
[8] = Cilnidipine 20 mg, n=2, Excluding Outliers, ITT Part A
[9] = Cilnidipine 20 mg, n=2, ITT Part A
[10] = Cilnidipine 20 mg, Baseline RCS subgroup 1 (unnamed), ITT Part A
[11] = Cilnidipine 20 mg, Excluding Outliers, Baseline RCS subgroup 1 (unnamed), ITT Part A

COCCOC(=O)C1=C(C)NC(C)=C(C(=O)OC/C=C/c2ccccc2)C1c1cccc([N+](=O)[O-])c1 (stereo not shown) [Cilnidipine, cilnidipine]
−21.20%: Average Duration of Weekly RP Attacks (All Attacks) Percent Change from Baseline, Mean [5] | Average Duration of Weekly RP Attacks (All Attacks) Percent Change from Baseline, Median [5] | Average Duration of Weekly RP Attacks (All Attacks) Percent Change from Baseline, Mean [6] | Average Duration of Weekly RP Attacks (All Attacks) Percent Change from Baseline, Median [6] | Average Duration of Weekly RP Attacks (All Attacks) Percent Change from Baseline, Mean (Cilnidipine 10 mg, ITT Part A) | Average Duration of Weekly RP Attacks (All Attacks) Percent Change from Baseline, Median (Cilnidipine 10 mg, ITT Part A) | Average Duration of Weekly RP Attacks (All Attacks) Percent Change from Baseline, Mean [7] | Average Duration of Weekly RP Attacks (All Attacks) Percent Change from Baseline, Median [7]
-8.48 min: Average Duration of Weekly RP Attacks (All Attacks) Change from Baseline, Mean [5] | Average Duration of Weekly RP Attacks (All Attacks) Change from Baseline, Median [5] | Average Duration of Weekly RP Attacks (All Attacks) Change from Baseline, Mean [6] | Average Duration of Weekly RP Attacks (All Attacks) Change from Baseline, Median [6] | Average Duration of Weekly RP Attacks (All Attacks) Change from Baseline, Mean (Cilnidipine 10 mg, ITT Part A) | Average Duration of Weekly RP Attacks (All Attacks) Change from Baseline, Median (Cilnidipine 10 mg, ITT Part A) | Average Duration of Weekly RP Attacks (All Attacks) Change from Baseline, Mean [7] | Average Duration of Weekly RP Attacks (All Attacks) Change from Baseline, Median [7]
31.52 min: Average Duration of Weekly RP Attacks (All Attacks), Mean [5] | Average Duration of Weekly RP Attacks (All Attacks), Median [5] | Average Duration of Weekly RP Attacks (All Attacks), Mean [6] | Average Duration of Weekly RP Attacks (All Attacks), Median [6] | Average Duration of Weekly RP Attacks (All Attacks), Mean (Cilnidipine 10 mg, ITT Part A) | Average Duration of Weekly RP Attacks (All Attacks), Median (Cilnidipine 10 mg, ITT Part A) | Average Duration of Weekly RP Attacks (All Attacks), Mean [7] | Average Duration of Weekly RP Attacks (All Attacks), Median [7]
31.64 min: Average Duration of Weekly Symptomatic RP Attacks, Mean [1] | Average Duration of Weekly Symptomatic RP Attacks, Median [1] | Average Duration of Weekly Symptomatic RP Attacks, Mean [2] | Average Duration of Weekly Symptomatic RP Attacks, Median [2] | Average Duration of Weekly Symptomatic RP Attacks, Mean [3] | Average Duration of Weekly Symptomatic RP Attacks, Median [3] | Average Duration of Weekly Symptomatic RP Attacks, Mean [4] | Average Duration of Weekly Symptomatic RP Attacks, Median [4]
−34.60%: Average Duration of Weekly Symptomatic RP Attacks, Percent Change from Baseline, Mean [1] | Average Duration of Weekly Symptomatic RP Attacks, Percent Change from Baseline, Median [1] | Average Duration of Weekly Symptomatic RP Attacks, Percent Change from Baseline, Mean [2] | Average Duration of Weekly Symptomatic RP Attacks, Percent Change from Baseline, Median [2] | Average Duration of Weekly Symptomatic RP Attacks, Percent Change from Baseline, Mean [3] | Average Duration of Weekly Symptomatic RP Attacks, Percent Change from Baseline, Median [3] | Average Duration of Weekly Symptomatic RP Attacks, Percent Change from Baseline, Mean [4] | Average Duration of Weekly Symptomatic RP Attacks, Percent Change from Baseline, Median [4]
−31.05%: Average Duration of Weekly Symptomatic RP Attacks, Percent Change from Baseline, Mean [8] | Average Duration of Weekly Symptomatic RP Attacks, Percent Change from Baseline, Median [8] | Average Duration of Weekly Symptomatic RP Attacks, Percent Change from Baseline, Mean [9] | Average Duration of Weekly Symptomatic RP Attacks, Percent Change from Baseline, Median [9] | Average Duration of Weekly Symptomatic RP Attacks, Percent Change from Baseline, Mean [10] | Average Duration of Weekly Symptomatic RP Attacks, Percent Change from Baseline, Median [10] | Average Duration of Weekly Symptomatic RP Attacks, Percent Change from Baseline, Mean [11] | Average Duration of Weekly Symptomatic RP Attacks, Percent Change from Baseline, Median [11]
16.73 min: Average Duration of Weekly Symptomatic RP Attacks, Mean [8] | Average Duration of Weekly Symptomatic RP Attacks, Median [8] | Average Duration of Weekly Symptomatic RP Attacks, Mean [9] | Average Duration of Weekly Symptomatic RP Attacks, Median [9] | Average Duration of Weekly Symptomatic RP Attacks, Mean [10] | Average Duration of Weekly Symptomatic RP Attacks, Median [10] | Average Duration of Weekly Symptomatic RP Attacks, Mean [11] | Average Duration of Weekly Symptomatic RP Attacks, Median [11]
-3.13 min: Average Duration of Weekly Symptomatic RP Attacks, Change from Baseline, Mean [8] | Average Duration of Weekly Symptomatic RP Attacks, Change from Baseline, Median [8] | Average Duration of Weekly Symptomatic RP Attacks, Change from Baseline, Mean [9] | Average Duration of Weekly Symptomatic RP Attacks, Change from Baseline, Median [9] | Average Duration of Weekly Symptomatic RP Attacks, Change from Baseline, Mean [10] | Average Duration of Weekly Symptomatic RP Attacks, Change from Baseline, Median [10] | Average Duration of Weekly Symptomatic RP Attacks, Change from Baseline, Mean [11] | Average Duration of Weekly Symptomatic RP Attacks, Change from Baseline, Median [11]
-16.74 min: Average Duration of Weekly Symptomatic RP Attacks, Change from Baseline, Mean [1] | Average Duration of Weekly Symptomatic RP Attacks, Change from Baseline, Median [1] | Average Duration of Weekly Symptomatic RP Attacks, Change from Baseline, Mean [2] | Average Duration of Weekly Symptomatic RP Attacks, Change from Baseline, Median [2] | Average Duration of Weekly Symptomatic RP Attacks, Change from Baseline, Mean [3] | Average Duration of Weekly Symptomatic RP Attacks, Change from Baseline, Median [3] | Average Duration of Weekly Symptomatic RP Attacks, Change from Baseline, Mean [4] | Average Duration of Weekly Symptomatic RP Attacks, Change from Baseline, Median [4]
-1.09 min: Average Duration of Weekly RP Attacks (All Attacks) Change from Baseline, Mean (Cilnidipine 20 mg, Excluding Outliers, ITT Population - Part A)
